This is an account of results in ChEMBL document CHEMBL1201862, “PubChem BioAssay data set” (2004).

Test systems include NCI-H460; PC-3; HT-29; LOX IMVI; UACC-62; TK-10; A549; HL-60; SR; Malme-3M; MDA-MB-435; COLO 205; SK-MEL-28; OVCAR-5; SW-620; SF-539; RPMI-8226; MCF7; SF-268; SK-MEL-2.
Assay in all cases: inhibition of tumour cell growth, NCI panel, 48 h

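Five concentrations, 48 hours, 96-well plates. Abbreviation: GI50, concentration required for 50% inhibition of growth.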 The source made the active and inactive calls. Rule as the data show it: active = GI50 up to about 1.1 µM and inactive = higher.

In the case of `O=Cc1cc(O)c(O)c(/C=N/n2c3ccccc3c3ccccc32)c1`, the GI50 in the test on NCI-H460 was 6.03 µM (inactive); in the test on PC-3, 10.1 µM (inactive); in the test on HT-29, 18.7 µM (inactive); with LOX IMVI, 8.49 µM (inactive); in the test on UACC-62 it was 7.83 µM (inactive); in the test on TK-10, 13.4 µM (inactive). For the same compound, the GI50 in the test with A549 is 12.8 µM (inactive); in the test with HL-60 it was 2.33 µM (inactive); with SR, 2.84 µM (inactive); in the test on Malme-3M, 12.4 µM (inactive); with MDA-MB-435, 11.3 µM (inactive); with COLO 205, 10.8 µM (inactive). Further, the GI50 in the test on SK-MEL-28 was 12.9 µM (inactive); with OVCAR-5, 17.9 µM (inactive); in the test on SW-620, 5.15 µM (inactive); in the test with SF-539 it was 6.38 µM (inactive); with RPMI-8226, 2.05 µM (inactive); in the test on MCF7 it was 0.64 µM (active). The GI50 in the test on SF-268 was 3.98 µM (inactive).

On to `C=C(CCOC)CCC1CCCCC(=C)[C@H]1OC(C)=O` (some centres undefined), for which the GI50 in the test on NCI-H460, in the test on PC-3, in the test on HT-29, in the test on LOX IMVI, with UACC-62 and in the test with TK-10 was > 100 µM (inactive) in each case. The GI50 is > 100 µM (inactive) in the test on A549; 50.7 µM (inactive) with HL-60; 52.5 µM (inactive) with SR; > 100 µM (inactive) with MDA-MB-435; > 100 µM (inactive) in the test with COLO 205; > 100 µM (inactive) with SK-MEL-28. Besides, the GI50 with OVCAR-5 was > 100 µM (inactive); in the test on SW-620 it was > 100 µM (inactive); with SF-539 it was > 100 µM (inactive); in the test on RPMI-8226, 51.1 µM (inactive); in the test with MCF7, > 100 µM (inactive); in the test on SF-268, > 100 µM (inactive). The GI50 in the test with SK-MEL-2 is > 100 µM (inactive).

As for `COc1cc2c(cc1OC)C1C3CCCCC3CCN1CC2` (centres undefined), the GI50 in the test with NCI-H460 is > 100 µM (inactive); with PC-3, > 100 µM (inactive); in the test with HT-29 it was 88.9 µM (inactive); in the test on LOX IMVI, > 100 µM (inactive); in the test on UACC-62, > 100 µM (inactive); with TK-10, > 100 µM (inactive). For the same compound, the GI50 in the test on A549 is 91.2 µM (inactive); in the test on HL-60, > 100 µM (inactive); in the test with SR it was > 100 µM (inactive); in the test on Malme-3M, > 100 µM (inactive); in the test on MDA-MB-435, > 100 µM (inactive); with COLO 205, 67 µM (inactive). The GI50 was > 100 µM (inactive) in the test on SK-MEL-28; > 100 µM (inactive) with OVCAR-5; > 100 µM (inactive) in the test with SW-620; > 100 µM (inactive) with SF-539; 0.36 µM (active) with MCF7; > 100 µM (inactive) with SF-268. Moreover, the GI50 in the test on SK-MEL-2 is > 100 µM (inactive).

On to `COc1ccc2c3c1OC1C34CCN(C)C(C2)C4=CC(I)C1(OC)OC` (centres undefined), for which the GI50 was 13.5 µM (inactive) in the test on NCI-H460; 10.2 µM (inactive) in the test on PC-3; 7.66 µM (inactive) with HT-29; 7.33 µM (inactive) in the test with LOX IMVI; 14.6 µM (inactive) with UACC-62; 14.7 µM (inactive) in the test with TK-10. Moreover, the GI50 in the test on A549 is 22.2 µM (inactive); in the test with SR, 2.36 µM (inactive); in the test with Malme-3M it was 7.21 µM (inactive); in the test with MDA-MB-435 it was 4.12 µM (inactive); in the test on COLO 205 it was 13.9 µM (inactive); with SK-MEL-28 it was 12.1 µM (inactive). The GI50 is 18.6 µM (inactive) in the test with OVCAR-5; 2.68 µM (inactive) with SW-620; 1.79 µM (inactive) in the test on SF-539; 2.71 µM (inactive) with RPMI-8226; 5.08 µM (inactive) in the test on MCF7; 16.7 µM (inactive) with SF-268. Besides, the GI50 in the test on SK-MEL-2 was 15.6 µM (inactive).

Regarding `CCCCCCCCCCCCCCCCCCNc1nc(=O)n(C2CC(O)C(COP(=O)(O)OCC3OC(n4ccc(N)nc4=O)C(O)C3O)O2)cc1F` (centres undefined), the GI50 was 4.5 µM (inactive) with NCI-H460; 28.6 µM (inactive) in the test with PC-3; 13.1 µM (inactive) in the test with HT-29; 10.2 µM (inactive) with LOX IMVI; 80.4 µM (inactive) with UACC-62; > 100 µM (inactive) in the test on TK-10. Also, the GI50 in the test with A549 is 3.25 µM (inactive); in the test with SR, > 100 µM (inactive); in the test with Malme-3M, 24.5 µM (inactive); in the test with MDA-MB-435, > 100 µM (inactive); in the test on COLO 205, 26.9 µM (inactive); with SK-MEL-28 it was > 100 µM (inactive). Also, the GI50 with OVCAR-5 was 52.6 µM (inactive); in the test on SW-620 it was > 100 µM (inactive); in the test with SF-539 it was 32.6 µM (inactive); with RPMI-8226, > 100 µM (inactive); in the test with MCF7 it was 6.7 µM (inactive); in the test with SF-268, 32.1 µM (inactive). The GI50 in the test with SK-MEL-2 is > 100 µM (inactive).

On to `Cc1c(/C=N/NC(=S)Nc2ccccc2)c(=O)n(-c2ccccc2)n1C`, for which the GI50 in the test with NCI-H460, in the test on PC-3, in the test on HT-29, with LOX IMVI, in the test on UACC-62 and in the test on TK-10 was > 100 µM (inactive) in each case. Further, the GI50 in the test on HL-60, in the test on SR, with MDA-MB-435, in the test with COLO 205, with SK-MEL-28 and in the test on SW-620 was > 100 µM (inactive) throughout. The GI50 in the test with SF-539, in the test with RPMI-8226, with MCF7, in the test with SF-268 and with SK-MEL-2 was > 100 µM (inactive) in each case.

For the compound `C=C1NC(=O)C(CC(C(=O)C(=O)Nc2c(C)cccc2C(C)(C)C)C(=O)c2ccc3ccccc3c2)C(=O)N1` (centres undefined), the GI50 in the test with NCI-H460, in the test on PC-3, in the test with HT-29, in the test on LOX IMVI, in the test with UACC-62 and in the test with A549 was > 100 µM (inactive) throughout. For the same compound, the GI50 in the test on HL-60, in the test on SR, in the test on MDA-MB-435, in the test on COLO 205, in the test on SK-MEL-28 and in the test with OVCAR-5 was > 100 µM (inactive) each time. Besides, the GI50 in the test with SW-620, with SF-539, in the test on RPMI-8226, in the test on MCF7, in the test with SF-268 and in the test on SK-MEL-2 was > 100 µM (inactive) each time.

In the case of `Nc1nc(NNc2ccc(Cl)c(Cl)c2)cc(=O)[nH]1`, the GI50 in the test on NCI-H460 is 41.6 µM (inactive); in the test with PC-3, 34 µM (inactive); with HT-29, 34.4 µM (inactive); with LOX IMVI, 17.3 µM (inactive); with TK-10, > 100 µM (inactive); with A549, 45.7 µM (inactive). Besides, the GI50 is 26.4 µM (inactive) in the test on HL-60; 31.7 µM (inactive) with SR; 46.9 µM (inactive) in the test with Malme-3M; 25.4 µM (inactive) with MDA-MB-435; 16.6 µM (inactive) with COLO 205; 52.1 µM (inactive) in the test with SK-MEL-28. For the same compound, the GI50 was 43.4 µM (inactive) with OVCAR-5; 22.8 µM (inactive) in the test on SW-620; 99.1 µM (inactive) with SF-539; 32.2 µM (inactive) in the test on RPMI-8226; 17.3 µM (inactive) in the test on MCF7; 19.7 µM (inactive) in the test on SF-268.

Consider `C=C1C(=O)C2(C)OC2(C)C1C(=O)O` (centres undefined), for which the GI50 in the test with NCI-H460, with PC-3, in the test with HT-29, with LOX IMVI, in the test on UACC-62 and in the test with TK-10 was > 100 µM (inactive) throughout. In addition, the GI50 in the test with A549, in the test on HL-60, with SR, in the test with MDA-MB-435, with COLO 205 and in the test with SK-MEL-28 was > 100 µM (inactive) each time. For the same compound, the GI50 in the test with OVCAR-5, with SW-620, with SF-539, in the test with RPMI-8226, in the test with MCF7 and with SF-268 was > 100 µM (inactive) in each case. For the same compound, the GI50 in the test with SK-MEL-2 was > 100 µM (inactive).

Take `Cc1cc2cc3c(cc2c(-c2ccc(N)cc2)n1)OCO3`: the GI50 in the test on NCI-H460 was 21.3 µM (inactive); in the test on PC-3 it was 40.7 µM (inactive); with HT-29, 22.2 µM (inactive); with UACC-62, 30.8 µM (inactive); with TK-10, 39.9 µM (inactive); in the test with A549, 74.1 µM (inactive). Also, the GI50 in the test on HL-60 is 12 µM (inactive); with SR it was 15.6 µM (inactive); in the test on Malme-3M, 86.9 µM (inactive); with MDA-MB-435, 76.6 µM (inactive); with COLO 205, 26.8 µM (inactive); in the test on OVCAR-5, 36.6 µM (inactive). Also, the GI50 is 31.6 µM (inactive) in the test on SW-620; > 100 µM (inactive) in the test with SF-539; 23.8 µM (inactive) with RPMI-8226; 7.74 µM (inactive) with MCF7; 22.3 µM (inactive) with SF-268; 82.8 µM (inactive) with SK-MEL-2.

As to `CC(=O)C(=C(c1ccccc1)c1ccccc1)c1ccccc1`, the GI50 is > 100 µM (inactive) with NCI-H460; 45.2 µM (inactive) in the test on PC-3; > 100 µM (inactive) in the test with HT-29; > 100 µM (inactive) in the test on LOX IMVI; > 100 µM (inactive) in the test on UACC-62; > 100 µM (inactive) in the test on TK-10. The GI50 in the test with A549 is > 100 µM (inactive); in the test with HL-60 it was 20.5 µM (inactive); in the test on SR, 31.8 µM (inactive); in the test on Malme-3M it was > 100 µM (inactive); with MDA-MB-435, > 100 µM (inactive); with COLO 205, > 100 µM (inactive). For the same compound, the GI50 with SK-MEL-28 is > 100 µM (inactive); in the test with OVCAR-5, > 100 µM (inactive); in the test on SW-620, > 100 µM (inactive); in the test with SF-539 it was > 100 µM (inactive); in the test with RPMI-8226, 52.6 µM (inactive); with MCF7 it was > 100 µM (inactive). The GI50 with SF-268 was > 100 µM (inactive).
